In paper PMC6480224, “Synthesis of Pyridine-Dicarboxamide-Cyclohexanone Derivatives: Anticancer and α-Glucosidase Inhibitory Activities and In Silico Study” (Molecules, 2019):
Like-named read-outs stand apart in the source and are kept apart here. Values belong to the molecule of their own block, whether it stands above or below them.

Columns and labels:
[1] = test system: MCF-7 breast cancer (+ve ER) cells; experiment: MTT cytotoxicity assay, MCF-7; type: cell-based; conditions: mean ± SD of three experiments, NA = no or negligible activity in initial crystal violet screening
Description: (§1) The cytotoxic activity of the new synthesized compounds was tested in different mammalian cancer cells, breast cancer (+ve ER) (MCF-7), breast cancer (−ve ER) (MDA-MB-231), tongue (oral cancer) (SAS), prostate cancer (PC-3), colorectal cancer (HCT-116) and hepatocellular carcinoma (HuH-7 and HepG-2). The cell lines were obtained from the American Type Culture Collection (ATCC). The cells were cultivated at 37 °C and 5% CO2 in DMEM (Lonza) medium supplemented with 10% fetal bovine serum (Lonza), 100 IU/mLpenicillin and 100 µg/mL streptomycin (Lonza). Cisplatin was used as a positive control and was obtained from Sigma-Aldrich. The synthesized compounds were solubilized in DMSO and stored at −20 °C. For the initial screening, 0.5% crystal violet was used. The viability of the cells were determined by using the MTT reagent.
(§2) “The cells were seeded in a 96-well plate and serial dilutions of the tested compounds or cisplatin was added after overnight incubation of the cells at 37 °C and 5% CO2. DMSO was used as a negative control (0.1%). After that, MTT (5 mg/mL PBS) was added after 48 hours of incubation. The formazan crystals were solubilized by the acidified SDS solution. The absorbance was recorded at 570 nm by Biotech ELx-800™ plate reader (Winooski, VT, USA). The viability assay was performed 3 times and the standard deviation was determined (±). IC50 was calculated as the concentration that causes 50% inhibition of cell growth. The selectivity index was calculated as previously reported” [26, 27].

[2] = test system: MDA-MB-231 breast cancer (−ve ER) cells; experiment: MTT cytotoxicity assay, MDA-MB-231; type: cell-based; conditions: mean ± SD of three experiments, NA = no or negligible activity in initial crystal violet screening
Description: as §1, §2

[3] = test system: SAS tongue carcinoma (oral cancer) cells; experiment: MTT cytotoxicity assay, SAS; type: cell-based; conditions: 48 h, mean ± SD of three experiments, NA = no or negligible activity in initial crystal violet screening
Description: as §1, §2

[4] = test system: PC-3 prostate cancer cells; experiment: MTT cytotoxicity assay, PC-3; type: cell-based; conditions: 48 h, mean ± SD of three experiments, NA = no or negligible activity in initial crystal violet screening
Description: as §1, §2

[5] = test system: HCT-116 colorectal cancer cells; experiment: MTT cytotoxicity assay, HCT-116; type: cell-based; conditions: mean ± SD of three experiments, NA = no or negligible activity in initial crystal violet screening, read-out: IC50 Colon HCT-116
Description: as §1
(§3) “The cells were seeded in a 96-well plate and serial dilutions of the tested compounds or cisplatin was added after overnight incubation of the cells at 37 °C and 5% CO2. DMSO was used as a negative control (0.1%). After that, MTT (5 mg/mL PBS) was added after 48 hours of incubation. […] The absorbance was recorded at 570 nm by Biotech ELx-800™ plate reader (Winooski, VT, USA). The viability assay was performed 3 times and the standard deviation was determined (±). […] The selectivity index was calculated as previously reported” [26, 27].

HuH-7 liver cancer cells = experiment: MTT cytotoxicity assay, HuH-7; type: cell-based; conditions: mean ± SD of three experiments, NA = no or negligible activity in initial crystal violet screening
Description: as §1, §3

HepG2 liver cancer cells = experiment: MTT cytotoxicity assay, HepG2; type: cell-based; conditions: mean ± SD of three experiments, NA = no or negligible activity in initial crystal violet screening
Description: as §1, §2

[6] = test system: seven cancer cell lines (MCF-7, MDA-MB-231, SAS, PC-3, HCT-116, HuH-7, HepG2); experiment: Anticancer screening against the panel of seven cancer cell lines (crystal violet initial screening); type: cell-based; conditions: concentration of 50 μM
Description: To evaluate the anticancer activity of the 13 newly synthesized compounds, we screened their activities at a concentration of 50 μM against seven cancer cell lines, including breast cancer (positive [MCF-7] and negative [MDA-MB-231] for estrogen receptor expression), tongue carcinoma (SAS), prostate cancer (PC-3), colorectal cancer (HCT-116) and liver cancer (HuH-7 and HepG2) cell lines. […] The 3-(4,5-dimethylthiazol-2-yl)-2,5-diphenyltetrazolium bromide (MTT) assay was performed to determine the concentration of the active compounds needed to kill 50% of cells.
as §1

SMILES: N.N.[Cl][Pt][Cl] [Cisplatin, reference compound]
IC50 ([1]; 48 h): 9 ± 2.43 µM | IC50 ([2]; 48 h): 15 ± 0.71 µM | IC50 [3]: 4.5 ± 0.34 µM | IC50 [4]: 12 ± 1.25 µM | IC50 ([5]; 48 h): 8 ± 0.76 µM | IC50 (HuH-7 liver cancer cells; 48 h): 14.7 ± 0.5 µM | IC50 (HepG2 liver cancer cells; 48 h): 10 ± 0.65 µM

SMILES: O=C1CC(c2ccccc2)C(C(=O)Nc2ccccn2)(C(=O)Nc2ccccn2)C(c2ccccc2)C1 (stereo not drawn) [Compound 3a, 4-Oxo-2,6-diphenyl-N,N′-di(pyridin-2-yl)cyclohexane-1,1-dicarboxamide]
melting point: 248 to 249 °C

SMILES: O=C1CC(c2ccc(Cl)cc2)C(C(=O)Nc2ccccn2)(C(=O)Nc2ccccn2)C(c2ccc(Cl)cc2)C1 (stereo not drawn) [Compound 3c, 2,6-bis(4-Chlorophenyl)-4-oxo-N,N′-di(pyridin-2-yl)cyclohexane-1,1-dicarboxamide]
IC50 ([1]; Homo sapiens, MCF7, 48 h): 10 ± 0.62 µM | IC50 ([2]; Homo sapiens, MDA-MB-231, 48 h): 7 ± 1.12 µM | IC50 [3]: 15 ± 1.3 µM | IC50 [4]: 25 ± 1.42 µM | IC50 (HepG2 liver cancer cells; Homo sapiens, HepG2, 48 h): 8 ± 0.89 µM | anticancer activity in initial screening [6]: showed different levels of anticancer activities | melting point: 231 to 232 °C

SMILES: O=C1CC(c2ccc(Br)cc2)C(C(=O)Nc2ccccn2)(C(=O)Nc2ccccn2)C(c2ccc(Br)cc2)C1 (stereo not drawn) [Compound 3e, 2,6-bis(4-Bromorophenyl)-4-oxo-N,N′-di(pyridin-2-yl)cyclohexane-1,1-dicarboxamide]
IC50 ([1]; 48 h): 12 ± 0.54 µM | IC50 ([2]; 48 h): 5 ± 0.5 µM | IC50 (HepG2 liver cancer cells; 48 h): 8 ± 0.96 µM | anticancer activity in initial screening [6]: showed different levels of anticancer activities

SMILES: COc1ccc(C2CC(=O)CC(c3ccc(OC)cc3)C2(C(=O)Nc2ccc(Cl)cn2)C(=O)Nc2ccc(Cl)cn2)cc1 (stereo not drawn) [Compound 3g, N,N′-bis(5-Chloropyridin-2-yl)-2,6-bis(4-methoxyphenyl)-4-oxocyclohexane-1,1-dicarboxamide]
melting point: 203 to 204 °C

SMILES: O=C1CC(c2ccc3ccccc3c2)C(C(=O)Nc2ccc(Cl)cn2)(C(=O)Nc2ccc(Cl)cn2)C(c2ccc3ccccc3c2)C1 (stereo not drawn) [Compound 3h, N,N′-bis(5-Chloropyridin-2-yl)-2,6-di(naphthalen-2-yl)-4-oxocyclohexane-1,1-dicarboxamide]
melting point: 114 to 115 °C

SMILES: O=C1CC(c2cccs2)C(C(=O)Nc2ccc(Cl)cn2)(C(=O)Nc2ccc(Cl)cn2)C(c2cccs2)C1 (stereo not drawn) [Compound 3i, N,N′-bis(5-Chloropyridin-2-yl)-4-oxo-2,6-di(thiophen-2-yl)cyclohexane-1,1-dicarboxamide]
melting point: 165 to 166 °C

SMILES: O=C1CC(c2cccc(Br)c2)C(C(=O)Nc2ccc(Cl)cn2)(C(=O)Nc2ccc(Cl)cn2)C(c2cccc(Br)c2)C1 (stereo not drawn) [Compound 3k, 2,6-bis(3-Bromophenyl)-N,N′-bis(5-chloropyridin-2-yl)-4-oxocyclohexane-1,1-dicarboxamide]
anticancer activity in initial screening [6]: showed different levels of anticancer activities | melting point: 213 to 214 °C

SMILES: O=C1CC(c2ccc(F)cc2)C(C(=O)Nc2ccccn2)(C(=O)Nc2ccccn2)C(c2ccc(F)cc2)C1 (stereo not drawn) [Compound 3m, 2,6-bis(4-Fluorophenyl)-4-oxo-N,N′-di(pyridin-2-yl)cyclohexane-1,1-dicarboxamide]
melting point: 245 to 246 °C

Now from value to molecule, other results behind:

melting point: 145 to 146 °C
SMILES: Cc1ccc(C2CC(=O)CC(c3ccc(C)cc3)C2(C(=O)Nc2ccc(Cl)cn2)C(=O)Nc2ccc(Cl)cn2)cc1 (stereo not drawn) [Compound 3b, N,N′-bis(5-Chloropyridin-2-yl)-4-oxo-2,6-di-p-tolylcyclohexane-1,1-dicarboxamide]

melting point: 210 to 211 °C
SMILES: O=C1CC(c2ccc(Cl)cc2Cl)C(C(=O)Nc2ccccn2)(C(=O)Nc2ccccn2)C(c2ccc(Cl)cc2Cl)C1 (stereo not drawn) [Compound 3d, 2,6-bis(2,4-Dichlorophenyl)-4-oxo-N,N′-di(pyridin-2-yl)cyclohexane-1,1-dicarboxamide]
IC50 ([1]; Homo sapiens, MCF7, 48 h): > 50 µM | IC50 ([2]; Homo sapiens, MDA-MB-231, 48 h): 18 ± 0.87 µM | IC50 (HepG2 liver cancer cells; Homo sapiens, HepG2, 48 h): > 50 µM | anticancer activity in initial screening [6]: showed different levels of anticancer activities

melting point: 174 to 175 °C
SMILES: O=C1CC(c2cccc([N+](=O)[O-])c2)C(C(=O)Nc2ccc(Cl)cn2)(C(=O)Nc2ccc(Cl)cn2)C(c2cccc([N+](=O)[O-])c2)C1 (stereo not drawn) [Compound 3f, N,N′-bis(5-Chloropyridin-2-yl)-2,6-bis(3-nitrophenyl)-4-oxocyclohexane-1,1-dicarboxamide]

melting point: 160 to 161 °C
SMILES: O=C1CC(c2ccco2)C(C(=O)Nc2ccc(Cl)cn2)(C(=O)Nc2ccc(Cl)cn2)C(c2ccco2)C1 (stereo not drawn) [Compound 3j, N,N′-bis(5-Chloropyridin-2-yl)-2,6-di(furan-2-yl)-4-oxocyclohexane-1,1-dicarboxamide]
IC50 ([1]; Homo sapiens, MCF7, 48 h): 50 ± 0.78 µM | IC50 ([2]; Homo sapiens, MDA-MB-231, 48 h): 45 ± 3 µM | IC50 (HepG2 liver cancer cells; Homo sapiens, HepG2, 48 h): > 50 µM

melting point: 138 to 139 °C
SMILES: O=C1CC(c2ccc(C(F)(F)F)cc2)C(C(=O)Nc2ccc(Cl)cn2)(C(=O)Nc2ccc(Cl)cn2)C(c2ccc(C(F)(F)F)cc2)C1 (stereo not drawn) [Compound 3l, N,N′-bis(5-Chloropyridin-2-yl)-4-oxo-2,6-bis(4-(trifluoromethyl)phenyl)cyclohex-ane-1,1-dicarboxamide]
IC50 ([1]; Homo sapiens, MCF7, 48 h): 18 ± 1.71 µM | IC50 ([2]; Homo sapiens, MDA-MB-231, 48 h): 5 ± 0.25 µM | IC50 [3]: 9 ± 0.38 µM | IC50 [4]: > 50 µM | IC50 ([5]; Homo sapiens, HCT-116, 48 h): 6 ± 0.78 µM | IC50 (HuH-7 liver cancer cells; Homo sapiens, Huh-7, 48 h): 4.5 ± 0.3 µM | IC50 (HepG2 liver cancer cells; Homo sapiens, HepG2, 48 h): 25 ± 0.38 µM | anticancer activity in initial screening [6]: showed different levels of anticancer activities
